# Assays:
# [1] = test system: Mycobacterium abscessus; test: MIC by broth microdilution in CAMHB, clinical isolates; type: cell-based; details: Mycobacteroides abscessus
# Method: (§1) A total of 24 clinical isolates of Mycobacterium abscessus, 22 clinical isolates of Mycobacterium chelonae and 20 clinical isolates of Mycobacterium fortuitum were tested in the study. The study also used the antibiotics tigecycline, doxycycline and amikacin for comparison purposes. […] Amikacin was dissolved in DMSO prior to freezing at −20° C. For susceptibility testing, stock solutions of antibiotic compounds were serially diluted in 50 μL of cation adjusted Mueller-Hinton broth (CAMHB) in polystryrene 96-well round-bottom microtiter plates. To each well, 50 μL of the appropriate mycobacterial cell suspension was added to yield a final concentration of about 1×10^5 CFU/mL. The inoculum used for each isolate was measured by titration in saline with Tween 80 and plating on MH agar. The Mycobacterium abscessus and Mycobacterium fortuitum titer plates were incubated at 37° C. in ambient air for 3-4 days and 5-7 days, respectively. The Mycobacterium chelonae titer plates were incubated at 30° C. in ambient air for 3-5 days. Each isolate was tested at least in duplicate. The MIC was defined as the lowest concentration of antimicrobial agent yielding no visible turbidity.
# [2] = test system: Mycobacterium chelonae; test: as above; type: cell-based
# Method: as §1
# [3] = test system: Mycobacterium fortuitum; test: as above; type: cell-based; details: Mycolicibacterium fortuitum
# Method: as §1
# [4] = test system: rapid-growing mycobacteria (RGM) isolates; test: MIC (CLSI broth dilution), all RGM isolates; type: cell-based, nontuberculous mycobacteria
# [5] = test system: M. abscessus complex; test: MIC (CLSI broth dilution), RGM isolates; type: cell-based; details: Mycobacteroides abscessus
# [6] = test system: M. chelonae; test: MIC (CLSI broth dilution), RGM isolates; type: cell-based; details: Mycobacteroides chelonae
# [7] = test system: M. fortuitum group; test: MIC (CLSI broth dilution), RGM isolates; type: cell-based; details: Mycolicibacterium fortuitum
# [8] = test system: M. immunogenum group; test: MIC (CLSI broth dilution), RGM isolates; type: cell-based; details: M. immunogenum
# [9] = test system: M. mucogenium group; test: MIC (CLSI broth dilution), RGM isolates; type: cell-based
# [10] = test system: M. smegmatis group; test: MIC (CLSI broth dilution), RGM isolates; type: cell-based; details: Mycolicibacterium smegmatis
smiles,measurement,setting,value
"CN(C)c1cc(NC(=O)CNC(C)(C)C)c(O)c2c1C[C@H]1C[C@H]3[C@H](N(C)C)C(O)=C(C(N)=O)C(=O)[C@@]3(O)C(O)=C1C2=O [Tigecycline, tigecycline]",MIC50,[1],1 µg/mL
same,MIC90,[1],2 µg/mL
same,MIC,"[1]; isolate No. 1, BB2",2 µg/mL
same,MIC,"[1]; isolate No. 2, BB4",2 µg/mL
same,MIC,"[1]; isolate No. 3, 5922",0.25 µg/mL
same,MIC,"[1]; isolate No. 4, BB3",0.06 µg/mL
same,MIC,"[1]; isolate No. 5, BB6",0.125 µg/mL
same,MIC,"[1]; isolate No. 6, 5908",2 µg/mL
same,MIC,"[1]; isolate No. 7, BB7",2 µg/mL
same,MIC,"[1]; isolate No. 8, 6031",1 µg/mL
same,MIC,"[1]; isolate No. 9, 5785",0.5 µg/mL
same,MIC,"[1]; isolate No. 11, 6111",0.5 µg/mL
same,MIC,"[1]; isolate No. 12, 6005",0.5 µg/mL
same,MIC,"[1]; isolate No. 16, BB5",1 µg/mL
same,MIC,"[1]; isolate No. 19, 5960",8 µg/mL
same,MIC,"[1]; isolate No. 23, 6025",1 µg/mL
same,MIC50,[2],0.06 µg/mL
same,MIC50,[3],0.25 µg/mL
same,MIC90,[3],0.25 µg/mL
same,MIC,"[3]; isolate No. 1, 3349",0.25 µg/mL
same,MIC,"[3]; isolate No. 2, 3499",0.015 µg/mL
same,MIC,"[3]; isolate No. 3, 2797",0.06 µg/mL
same,MIC,"[3]; isolate No. 4, 32",0.25 µg/mL
same,MIC,"[3]; isolate No. 5, 33",0.125 µg/mL
same,MIC,"[3]; isolate No. 6, 3489",0.015 µg/mL
same,MIC,"[3]; isolate No. 7, 3491",0.015 µg/mL
same,MIC,"[3]; isolate No. 8, 54",0.03 µg/mL
same,MIC,"[3]; isolate No. 9, 38",0.06 µg/mL
same,MIC,"[3]; isolate No. 10, 36",0.03 µg/mL
same,MIC,"[3]; isolate No. 11, 3480",0.25 µg/mL
same,MIC,"[3]; isolate No. 12, 3126",0.25 µg/mL
same,MIC,"[3]; isolate No. 13, 3579",0.25 µg/mL
same,MIC,"[3]; isolate No. 14, 7484",0.5 µg/mL
same,MIC,"[3]; isolate No. 15, 3488",0.25 µg/mL
same,MIC,"[3]; isolate No. 16, 3276",0.25 µg/mL
same,MIC,"[3]; isolate No. 17, 3442",1 µg/mL
same,MIC,"[3]; isolate No. 18, 3316",0.25 µg/mL
same,MIC,"[3]; isolate No. 19, 3490",0.25 µg/mL
same,MIC,"[3]; isolate No. 20, 2491",0.5 µg/mL
same,MIC50,[4],0.125 µg/mL
same,MIC90,[4],0.25 µg/mL
same,MIC,"[5]; isolate 1, M. abscessus complex, erm gene type MAB30",0.12 µg/mL
same,MIC,"[5]; isolate 2, M. abscessus complex, erm gene type MAB30",0.12 µg/mL
same,MIC,"[5]; isolate 3, M. abscessus complex, erm gene type MAB30",0.25 µg/mL
same,MIC,"[5]; isolate 4, M. abscessus complex, erm gene type massiliense",0.25 µg/mL
same,MIC,"[5]; isolate 5, M. abscessus complex, erm gene type massiliense/subsp. abs hybrid",0.25 µg/mL
same,MIC,"[5]; isolate 6, M. abscessus complex, erm gene type Type 1 abscessus",0.12 µg/mL
same,MIC,"[5]; isolate 7, M. abscessus complex, erm gene type Type 1 abscessus",0.25 µg/mL
same,MIC,"[5]; isolate 8, M. abscessus complex, erm gene type Type 1 abscessus",0.12 µg/mL
same,MIC,"[5]; isolate 9, M. abscessus complex, erm gene type Type 1 abscessus",0.25 µg/mL
same,MIC,"[5]; isolate 10, M. abscessus complex, erm gene type Type 1 abscessus",0.12 µg/mL
same,MIC,"[5]; isolate 11, M. abscessus complex, erm gene type Type 6 abscessus",0.06 µg/mL
same,MIC,"[5]; isolate 12, M. abscessus complex, erm gene type Type 6 abscessus",0.12 µg/mL
same,MIC,"[5]; isolate 13, M. abscessus complex, erm gene type Type 6 abscessus",0.25 µg/mL
same,MIC,"[5]; isolate 14, M. abscessus complex, erm gene type Type 6 abscessus",0.12 µg/mL
same,MIC,"[5]; isolate 15, M. abscessus complex, erm gene type Type 7 abscessus",0.06 µg/mL
same,MIC,"[5]; isolate 16, M. abscessus complex, erm gene type Type 7 abscessus",0.12 µg/mL
same,MIC,"[5]; isolate 17, M. abscessus complex, erm gene type Type 8 abscessus",0.12 µg/mL
same,MIC,"[6]; isolate 18, M. chelonae",0.12 µg/mL
same,MIC,"[6]; isolate 19, M. chelonae",0.25 µg/mL
same,MIC,"[6]; isolate 20, M. chelonae",0.12 µg/mL
same,MIC,"[6]; isolate 21, M. chelonae",0.5 µg/mL
same,MIC,"[6]; isolate 22, M. chelonae",0.25 µg/mL
same,MIC,"[7]; isolate 23, M. fortuitum group, M. fortuitum",0.03 µg/mL
same,MIC,"[7]; isolate 24, M. fortuitum group, M. fortuitum",0.12 µg/mL
same,MIC,"[7]; isolate 25, M. fortuitum group, M. fortuitum",≤ 0.015 µg/mL
same,MIC,"[7]; isolate 26, M. fortuitum group, M. porcinum",≤ 0.015 µg/mL
same,MIC,"[7]; isolate 27, M. fortuitum group, M. porcinum",0.03 µg/mL
same,MIC,"[7]; isolate 28, M. fortuitum group, M. porcinum/M. boenickei",0.03 µg/mL
same,MIC,"[7]; isolate 29, M. fortuitum group, M. porcinum/M. boenickei",0.03 µg/mL
same,MIC,"[7]; isolate 30, M. fortuitum group, M. porcinum/M. boenickei",0.03 µg/mL
same,MIC,"[7]; isolate 31, M. fortuitum group, M. senegalense",0.06 µg/mL
same,MIC,"[7]; isolate 32, M. fortuitum group, M. senegalense",0.03 µg/mL
same,MIC,"[7]; isolate 33, M. fortuitum group, M. senegalense",0.03 µg/mL
same,MIC,"[7]; isolate 34, M. fortuitum group, M. senegalense",0.03 µg/mL
same,MIC,"[8]; isolate 35, M. immunogenum group",0.5 µg/mL
same,MIC,"[8]; isolate 36, M. immunogenum group",0.12 µg/mL
same,MIC,"[8]; isolate 37, M. immunogenum group",0.5 µg/mL
same,MIC,"[8]; isolate 38, M. immunogenum group",0.5 µg/mL
same,MIC,"[9]; isolate 39, M. mucogenicum group, M. mucogenicum",0.12 µg/mL
same,MIC,"[9]; isolate 40, M. mucogenicum group, M. mucogenicum",0.06 µg/mL
same,MIC,"[9]; isolate 41, M. mucogenicum group, M. mucogenicum",0.06 µg/mL
same,MIC,"[9]; isolate 42, M. mucogenicum group, M. mucogenicum",0.12 µg/mL
same,MIC,"[9]; isolate 43, M. mucogenicum group, M. phocaicum",0.12 µg/mL
same,MIC,"[9]; isolate 44, M. mucogenicum group, M. phocaicum",0.06 µg/mL
same,MIC,"[9]; isolate 45, M. mucogenicum group, M. phocaicum",0.25 µg/mL
same,MIC,"[9]; isolate 46, M. mucogenicum group, M. phocaicum",0.06 µg/mL
same,MIC,"[9]; isolate 47, M. mucogenicum group, M. phocaicum",0.25 µg/mL
same,MIC,"[9]; isolate 48, M. mucogenicum group, M. phocaicum",0.03 µg/mL
same,MIC,"[10]; isolate 49, M. smegmatis group, M. goodii",≤ 0.015 µg/mL
same,MIC,"[10]; isolate 50, M. smegmatis group, M. wolinskyi",0.03 µg/mL

# Reference: patent US20250332178A1, “METHODS OF TREATING MYCOBACTERIAL INFECTIONS USING TETRACYCLINE COMPOUNDS” (priority 2018, published 2025)
